From ChEMBL document CHEMBL4507329, “Data for DCP probe BTZO-1” (2021)

How the values were obtained:
[1] = test system: Tyrosine-protein kinase ABL1 (Homo sapiens), P00519 [F317I]; conditions: Compound concentration 1000.0 nM
[2] = test system: Tyrosine-protein kinase ABL1 (Homo sapiens), P00519 [F317L]; conditions: Compound concentration 1000.0 nM
[3] = target: RAC-beta serine/threonine-protein kinase (Homo sapiens) (UniProt P31751); conditions: Compound concentration 1000.0 nM
[4] = test system: ALK tyrosine kinase receptor (Homo sapiens), Q9UM73 [C1156Y]; conditions: Compound concentration 1000.0 nM
[5] = target: Aurora kinase B (Homo sapiens) (UniProt Q96GD4); conditions: Compound concentration 1000.0 nM
[6] = target: Mitotic checkpoint serine/threonine-protein kinase BUB1 (Homo sapiens) (UniProt O43683); conditions: Compound concentration 1000.0 nM
[7] = target: Calcium/calmodulin-dependent protein kinase type 1B (Homo sapiens) (UniProt Q6P2M8); conditions: Compound concentration 1000.0 nM
[8] = target: Cyclin-dependent kinase 11B (Homo sapiens) (UniProt P21127); conditions: Compound concentration 1000.0 nM
[9] = target: Tyrosine-protein kinase CSK (Homo sapiens) (UniProt P41240); conditions: Compound concentration 1000.0 nM
Sequence of Tyrosine-protein kinase CSK (Homo sapiens) (P41240 2-450 limits assumed): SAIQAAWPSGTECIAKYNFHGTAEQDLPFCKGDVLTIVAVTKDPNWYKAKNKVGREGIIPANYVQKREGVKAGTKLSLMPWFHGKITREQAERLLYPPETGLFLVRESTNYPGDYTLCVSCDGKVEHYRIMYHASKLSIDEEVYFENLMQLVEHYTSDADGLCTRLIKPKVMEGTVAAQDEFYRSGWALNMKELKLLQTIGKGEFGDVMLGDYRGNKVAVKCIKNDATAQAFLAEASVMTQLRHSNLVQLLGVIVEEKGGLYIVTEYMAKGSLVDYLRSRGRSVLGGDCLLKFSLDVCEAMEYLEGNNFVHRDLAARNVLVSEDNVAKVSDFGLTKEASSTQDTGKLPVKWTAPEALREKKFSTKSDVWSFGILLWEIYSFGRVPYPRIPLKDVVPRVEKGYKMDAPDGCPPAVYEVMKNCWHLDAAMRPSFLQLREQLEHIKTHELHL

[10] = test system: Epidermal growth factor receptor (Homo sapiens), P00533 [UNDEFINED MUTATION]; conditions: Compound concentration 1000.0 nM
[11] = target: Ephrin type-A receptor 5 (Homo sapiens) (UniProt P54756); conditions: Compound concentration 1000.0 nM
[12] = target: Tyrosine-protein kinase Fes/Fps (Homo sapiens) (UniProt P07332); conditions: Compound concentration 1000.0 nM
Sequence of Tyrosine-protein kinase Fes/Fps (Homo sapiens) (P07332 whole entry): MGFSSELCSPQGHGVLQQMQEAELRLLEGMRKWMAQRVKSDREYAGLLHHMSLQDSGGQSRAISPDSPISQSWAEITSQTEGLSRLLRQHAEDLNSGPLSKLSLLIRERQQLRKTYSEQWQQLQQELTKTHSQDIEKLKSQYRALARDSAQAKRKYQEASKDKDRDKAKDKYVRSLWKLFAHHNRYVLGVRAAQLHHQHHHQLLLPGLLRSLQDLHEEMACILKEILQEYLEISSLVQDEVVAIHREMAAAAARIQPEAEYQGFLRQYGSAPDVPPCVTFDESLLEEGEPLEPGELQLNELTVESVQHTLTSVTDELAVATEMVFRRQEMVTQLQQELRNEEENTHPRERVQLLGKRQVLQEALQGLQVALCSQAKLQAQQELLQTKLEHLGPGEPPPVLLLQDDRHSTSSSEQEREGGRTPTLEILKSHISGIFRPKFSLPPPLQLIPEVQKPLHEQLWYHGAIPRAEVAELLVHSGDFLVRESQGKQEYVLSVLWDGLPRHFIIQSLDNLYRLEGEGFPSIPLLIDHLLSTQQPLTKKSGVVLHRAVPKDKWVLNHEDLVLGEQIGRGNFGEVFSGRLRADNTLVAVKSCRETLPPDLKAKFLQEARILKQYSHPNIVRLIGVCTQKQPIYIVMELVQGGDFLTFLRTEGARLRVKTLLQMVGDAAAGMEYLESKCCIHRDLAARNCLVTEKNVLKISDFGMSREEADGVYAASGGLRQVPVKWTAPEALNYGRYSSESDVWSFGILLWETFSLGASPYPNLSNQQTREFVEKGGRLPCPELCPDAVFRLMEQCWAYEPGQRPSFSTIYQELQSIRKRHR

[13] = target: Tyrosine-protein kinase Fgr (Homo sapiens) (UniProt P09769); conditions: Compound concentration 1000.0 nM
[14] = test system: Receptor-type tyrosine-protein kinase FLT3 (Homo sapiens), P36888 [UNDEFINED MUTATION]; conditions: Compound concentration 1000.0 nM
[15] = target: Cyclin-G-associated kinase (Homo sapiens) (UniProt O14976); conditions: Compound concentration 1000.0 nM
[16] = target: G protein-coupled receptor kinase 3 (Homo sapiens) (UniProt P35626); conditions: Compound concentration 1000.0 nM
[17] = target: Mast/stem cell growth factor receptor Kit (Homo sapiens) (UniProt P10721); conditions: Compound concentration 1000.0 nM
Sequence of Mast/stem cell growth factor receptor Kit (Homo sapiens) (P10721 whole entry): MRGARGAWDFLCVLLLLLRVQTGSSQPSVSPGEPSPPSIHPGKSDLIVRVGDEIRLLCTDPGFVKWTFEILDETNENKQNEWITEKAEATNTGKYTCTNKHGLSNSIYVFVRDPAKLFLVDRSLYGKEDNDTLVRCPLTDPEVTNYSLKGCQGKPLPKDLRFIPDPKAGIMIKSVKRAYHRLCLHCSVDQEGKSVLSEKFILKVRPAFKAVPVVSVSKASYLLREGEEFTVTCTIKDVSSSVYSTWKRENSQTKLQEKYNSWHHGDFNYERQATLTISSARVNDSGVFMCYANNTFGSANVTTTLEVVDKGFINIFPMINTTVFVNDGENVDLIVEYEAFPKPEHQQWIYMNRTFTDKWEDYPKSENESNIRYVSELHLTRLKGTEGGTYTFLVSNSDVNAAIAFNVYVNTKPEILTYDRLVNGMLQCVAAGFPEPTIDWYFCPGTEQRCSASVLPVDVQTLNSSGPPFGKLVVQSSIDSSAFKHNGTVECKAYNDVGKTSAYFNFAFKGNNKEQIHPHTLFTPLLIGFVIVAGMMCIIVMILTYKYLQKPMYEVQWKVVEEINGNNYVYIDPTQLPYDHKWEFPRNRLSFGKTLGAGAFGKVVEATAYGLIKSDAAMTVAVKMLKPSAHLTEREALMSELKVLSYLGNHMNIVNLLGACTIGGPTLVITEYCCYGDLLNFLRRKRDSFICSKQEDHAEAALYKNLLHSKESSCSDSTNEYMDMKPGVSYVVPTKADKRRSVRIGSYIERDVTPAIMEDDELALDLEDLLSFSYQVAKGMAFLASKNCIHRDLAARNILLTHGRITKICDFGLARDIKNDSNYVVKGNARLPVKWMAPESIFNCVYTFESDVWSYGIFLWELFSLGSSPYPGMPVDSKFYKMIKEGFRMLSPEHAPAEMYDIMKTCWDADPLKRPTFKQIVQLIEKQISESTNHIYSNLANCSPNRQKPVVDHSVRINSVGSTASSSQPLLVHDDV

[18] = target: Mast/stem cell growth factor receptor Kit (Homo sapiens) (UniProt P10721); conditions: Compound concentration 1000.0 nM; remark: listed apart in the source
[19] = target: Leukocyte tyrosine kinase receptor (Homo sapiens) (UniProt P29376); conditions: Compound concentration 1000.0 nM
[20] = target: MAP/microtubule affinity-regulating kinase 4 (Homo sapiens) (UniProt Q96L34); conditions: Compound concentration 1000.0 nM
[21] = target: Dual specificity mitogen-activated protein kinase kinase 3 (Homo sapiens) (UniProt P46734); conditions: Compound concentration 1000.0 nM
[22] = target: Serine/threonine-protein kinase MRCK beta (Homo sapiens) (UniProt Q9Y5S2); conditions: Compound concentration 1000.0 nM
[23] = target: Serine/threonine-protein kinase 3 (Homo sapiens) (UniProt Q13188); conditions: Compound concentration 1000.0 nM
[24] = target: Serine/threonine-protein kinase Nek10 (Homo sapiens) (UniProt Q6ZWH5); conditions: Compound concentration 1000.0 nM
[25] = target: Serine/threonine-protein kinase Nek2 (Homo sapiens) (UniProt P51955); conditions: Compound concentration 1000.0 nM
[26] = target: Serine/threonine-protein kinase Nek9 (Homo sapiens) (UniProt Q8TD19); conditions: Compound concentration 1000.0 nM
[27] = target: Mitogen-activated protein kinase 11 (Homo sapiens) (UniProt Q15759); conditions: Compound concentration 1000.0 nM
Sequence of Mitogen-activated protein kinase 11 (Homo sapiens) (Q15759 whole entry, the tested form may be a part): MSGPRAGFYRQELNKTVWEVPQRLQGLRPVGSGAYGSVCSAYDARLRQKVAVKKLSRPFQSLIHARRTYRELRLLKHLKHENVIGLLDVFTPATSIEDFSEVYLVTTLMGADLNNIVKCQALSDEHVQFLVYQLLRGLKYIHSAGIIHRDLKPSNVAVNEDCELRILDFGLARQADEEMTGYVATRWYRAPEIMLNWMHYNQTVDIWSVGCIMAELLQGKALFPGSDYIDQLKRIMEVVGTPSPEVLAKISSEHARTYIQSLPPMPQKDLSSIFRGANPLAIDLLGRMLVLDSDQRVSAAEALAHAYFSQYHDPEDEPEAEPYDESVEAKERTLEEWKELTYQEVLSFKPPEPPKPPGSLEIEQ

[28] = target: Phosphatidylinositol 4-phosphate 3-kinase C2 domain-containing subunit beta (Homo sapiens) (UniProt O00750); conditions: Compound concentration 1000.0 nM
[29] = test system: Phosphatidylinositol 4,5-bisphosphate 3-kinase catalytic subunit alpha isoform (Homo sapiens), P42336 [H1047Y]; conditions: Compound concentration 1000.0 nM
[30] = target: Phosphatidylinositol 4,5-bisphosphate 3-kinase catalytic subunit delta isoform (Homo sapiens) (UniProt O00329); conditions: Compound concentration 1000.0 nM
[31] = target: Serine/threonine-protein kinase pim-1 (Homo sapiens) (UniProt P11309); conditions: Compound concentration 1000.0 nM
[32] = target: cAMP-dependent protein kinase catalytic subunit alpha (Homo sapiens) (UniProt P17612); conditions: Compound concentration 1000.0 nM
[33] = target: Serine/threonine-protein kinase N1 (Homo sapiens) (UniProt Q16512); conditions: Compound concentration 1000.0 nM
Sequence of Serine/threonine-protein kinase N1 (Homo sapiens) (Q16512 2-942 limits assumed): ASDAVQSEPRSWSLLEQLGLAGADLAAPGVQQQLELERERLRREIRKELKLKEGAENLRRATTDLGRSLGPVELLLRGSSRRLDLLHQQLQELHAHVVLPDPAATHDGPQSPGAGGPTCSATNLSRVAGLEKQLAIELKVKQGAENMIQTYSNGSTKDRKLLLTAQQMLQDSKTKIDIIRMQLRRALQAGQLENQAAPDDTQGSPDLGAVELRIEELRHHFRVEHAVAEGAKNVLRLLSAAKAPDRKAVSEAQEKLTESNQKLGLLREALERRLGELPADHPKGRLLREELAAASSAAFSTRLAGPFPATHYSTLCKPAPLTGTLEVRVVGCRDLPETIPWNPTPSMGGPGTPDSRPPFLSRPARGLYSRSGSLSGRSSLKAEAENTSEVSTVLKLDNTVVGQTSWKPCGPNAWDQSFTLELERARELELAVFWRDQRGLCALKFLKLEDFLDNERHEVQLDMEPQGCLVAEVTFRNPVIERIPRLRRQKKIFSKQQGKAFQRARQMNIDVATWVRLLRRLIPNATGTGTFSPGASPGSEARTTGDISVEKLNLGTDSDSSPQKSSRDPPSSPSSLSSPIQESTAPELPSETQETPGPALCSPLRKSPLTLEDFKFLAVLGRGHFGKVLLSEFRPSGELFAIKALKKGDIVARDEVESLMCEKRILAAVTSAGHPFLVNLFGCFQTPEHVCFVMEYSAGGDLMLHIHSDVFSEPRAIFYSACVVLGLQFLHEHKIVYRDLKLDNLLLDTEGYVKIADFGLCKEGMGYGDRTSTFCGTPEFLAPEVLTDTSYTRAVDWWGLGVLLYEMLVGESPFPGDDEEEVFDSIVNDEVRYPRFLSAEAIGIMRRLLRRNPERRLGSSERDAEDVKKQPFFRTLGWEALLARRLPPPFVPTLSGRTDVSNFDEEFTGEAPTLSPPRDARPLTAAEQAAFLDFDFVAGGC

[34] = target: Protein kinase C iota type (Homo sapiens) (UniProt P41743); conditions: Compound concentration 1000.0 nM
[35] = target: Interferon-induced, double-stranded RNA-activated protein kinase (Homo sapiens) (UniProt P19525); conditions: Compound concentration 1000.0 nM
[36] = target: Serine/threonine-protein kinase PRP4 homolog (Homo sapiens) (UniProt Q13523); conditions: Compound concentration 1000.0 nM
[37] = target: Serine/threonine-protein kinase RIO2 (Homo sapiens) (UniProt Q9BVS4); conditions: Compound concentration 1000.0 nM
[38] = target: Dual serine/threonine and tyrosine protein kinase (Homo sapiens) (UniProt Q6XUX3); conditions: Compound concentration 1000.0 nM
[39] = target: Serine/threonine-protein kinase TAO1 (Homo sapiens) (UniProt Q7L7X3); conditions: Compound concentration 1000.0 nM
Sequence of Serine/threonine-protein kinase TAO1 (Homo sapiens) (Q7L7X3 whole entry): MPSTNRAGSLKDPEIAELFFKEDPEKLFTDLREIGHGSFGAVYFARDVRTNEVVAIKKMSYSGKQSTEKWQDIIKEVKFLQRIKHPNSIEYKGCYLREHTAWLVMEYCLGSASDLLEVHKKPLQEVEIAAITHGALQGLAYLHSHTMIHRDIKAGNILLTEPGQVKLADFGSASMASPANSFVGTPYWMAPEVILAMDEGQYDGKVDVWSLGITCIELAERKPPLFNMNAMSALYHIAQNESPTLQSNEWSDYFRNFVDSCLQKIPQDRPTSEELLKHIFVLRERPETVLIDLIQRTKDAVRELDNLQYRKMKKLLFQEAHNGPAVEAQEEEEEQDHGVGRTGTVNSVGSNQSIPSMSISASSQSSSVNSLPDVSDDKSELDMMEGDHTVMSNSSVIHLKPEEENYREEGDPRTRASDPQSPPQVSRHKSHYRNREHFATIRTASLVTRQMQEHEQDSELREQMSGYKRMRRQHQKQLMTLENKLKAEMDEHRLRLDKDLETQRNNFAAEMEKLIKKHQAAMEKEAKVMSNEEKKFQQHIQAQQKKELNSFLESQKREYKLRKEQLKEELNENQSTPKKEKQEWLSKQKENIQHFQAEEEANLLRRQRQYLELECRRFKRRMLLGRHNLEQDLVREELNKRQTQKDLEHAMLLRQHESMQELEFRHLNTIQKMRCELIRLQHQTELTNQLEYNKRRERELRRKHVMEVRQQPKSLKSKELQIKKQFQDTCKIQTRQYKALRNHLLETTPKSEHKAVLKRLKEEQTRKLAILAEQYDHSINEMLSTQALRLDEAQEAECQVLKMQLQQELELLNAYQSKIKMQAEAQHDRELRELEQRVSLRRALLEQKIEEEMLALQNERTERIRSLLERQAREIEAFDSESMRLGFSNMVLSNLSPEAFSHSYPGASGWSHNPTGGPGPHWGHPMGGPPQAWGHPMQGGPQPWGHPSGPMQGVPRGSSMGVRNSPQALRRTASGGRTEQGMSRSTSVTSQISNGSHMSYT

[40] = target: Non-receptor tyrosine-protein kinase TNK1 (Homo sapiens) (UniProt Q13470); conditions: Compound concentration 1000.0 nM
[41] = target: NT-3 growth factor receptor (Homo sapiens) (UniProt Q16288); conditions: Compound concentration 1000.0 nM
[42] = target: Serine/threonine-protein kinase ULK1 (Homo sapiens) (UniProt O75385); conditions: Compound concentration 1000.0 nM
[43] = target: Histamine H4 receptor (Homo sapiens) (UniProt Q9H3N8); conditions: Compound concentration 10.0 uM
Sequence of Histamine H4 receptor (Homo sapiens) (Q9H3N8 whole entry): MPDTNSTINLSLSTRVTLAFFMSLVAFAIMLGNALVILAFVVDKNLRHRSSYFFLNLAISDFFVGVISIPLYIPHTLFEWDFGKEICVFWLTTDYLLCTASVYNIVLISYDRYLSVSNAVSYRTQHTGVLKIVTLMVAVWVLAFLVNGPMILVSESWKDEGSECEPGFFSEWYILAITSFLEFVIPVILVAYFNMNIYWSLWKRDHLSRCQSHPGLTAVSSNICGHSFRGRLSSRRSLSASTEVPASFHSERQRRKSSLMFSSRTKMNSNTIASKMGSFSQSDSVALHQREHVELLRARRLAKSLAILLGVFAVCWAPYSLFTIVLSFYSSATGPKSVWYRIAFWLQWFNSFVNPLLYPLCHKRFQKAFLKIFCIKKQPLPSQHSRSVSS

[44] = target: Alpha-1B adrenergic receptor (Homo sapiens) (UniProt P35368); conditions: Compound concentration 10.0 uM
[45] = target: Alpha-2A adrenergic receptor (Homo sapiens) (UniProt P08913); conditions: Compound concentration 10.0 uM

Structure (SMILES): O=c1nc(-c2ccccn2)sc2ccccc12 [BTZO-1]
- residual activity [1]: 91%
- residual activity [2]: 100%
- residual activity [3]: 100%
- residual activity [4]: 100%
- residual activity [5]: 82%
- residual activity [6]: 100%
- residual activity [7]: 56%
- residual activity [8]: 100%
- residual activity [9]: 100%
- residual activity [10]: 74%
- residual activity [11]: 94%
- residual activity [12]: 100%
- residual activity [13]: 100%
- residual activity [14]: 100%
- residual activity [15]: 97%
- residual activity [16]: 51%
- residual activity [17]: 79%
- residual activity [18]: 97%
- residual activity [19]: 99%
- residual activity [20]: 100%
- residual activity [21]: 75%
- residual activity [22]: 100%
- residual activity [23]: 94%
- residual activity [24]: 100%
- residual activity [25]: 84%
- residual activity [26]: 96%
- residual activity [27]: 100%
- residual activity [28]: 83%
- residual activity [29]: 94%
- residual activity [30]: 54%
- residual activity [31]: 85%
- residual activity [32]: 91%
- residual activity [33]: 77%
- residual activity [34]: 100%
- residual activity [35]: 100%
- residual activity [36]: 71%
- residual activity [37]: 94%
- residual activity [38]: 88%
- residual activity [39]: 92%
- residual activity [40]: 59%
- residual activity [41]: 72%
- residual activity [42]: 100%
- inhibition [43]: -0.975%
- inhibition [44]: 9.84%
- inhibition [45]: 0.132%

Structure (SMILES): O=C1NC(c2ccccn2)Sc2ccccc21 (stereo not given) [BTZO-4]
- residual activity [1]: 88%
- residual activity [2]: 100%
- residual activity [3]: 92%
- residual activity [4]: 84%
- residual activity [5]: 100%
- residual activity [6]: 100%
- residual activity [7]: 71%
- residual activity [8]: 100%
- residual activity [9]: 100%
- residual activity [10]: 68%
- residual activity [11]: 85%
- residual activity [12]: 94%
- residual activity [13]: 100%
- residual activity [14]: 100%
- residual activity [15]: 100%
- residual activity [16]: 42%
- residual activity [17]: 89%
- residual activity [18]: 88%
- residual activity [19]: 89%
- residual activity [20]: 100%
- residual activity [21]: 81%
- residual activity [22]: 100%
- residual activity [23]: 100%
- residual activity [24]: 100%
- residual activity [25]: 100%
- residual activity [26]: 75%
- residual activity [27]: 100%
- residual activity [28]: 86%
- residual activity [29]: 67%
- residual activity [30]: 51%
- residual activity [31]: 82%
- residual activity [32]: 81%
- residual activity [33]: 60%
- residual activity [34]: 72%
- residual activity [35]: 91%
- residual activity [36]: 78%
- residual activity [37]: 83%
- residual activity [38]: 92%
- residual activity [39]: 96%
- residual activity [40]: 55%
- residual activity [41]: 81%
- residual activity [42]: 100%
- inhibition [43]: 1.89%
- inhibition [44]: -5.82%
- inhibition [45]: 12.7%
